Common to all, as to format: cell-based
Experiment [1] addresses T1, TRPML2 (Homo sapiens, UniProt Q8IZK6).
T1 construct: expressed in transfected cells
T1 sequence (Q8IZK6 1-566): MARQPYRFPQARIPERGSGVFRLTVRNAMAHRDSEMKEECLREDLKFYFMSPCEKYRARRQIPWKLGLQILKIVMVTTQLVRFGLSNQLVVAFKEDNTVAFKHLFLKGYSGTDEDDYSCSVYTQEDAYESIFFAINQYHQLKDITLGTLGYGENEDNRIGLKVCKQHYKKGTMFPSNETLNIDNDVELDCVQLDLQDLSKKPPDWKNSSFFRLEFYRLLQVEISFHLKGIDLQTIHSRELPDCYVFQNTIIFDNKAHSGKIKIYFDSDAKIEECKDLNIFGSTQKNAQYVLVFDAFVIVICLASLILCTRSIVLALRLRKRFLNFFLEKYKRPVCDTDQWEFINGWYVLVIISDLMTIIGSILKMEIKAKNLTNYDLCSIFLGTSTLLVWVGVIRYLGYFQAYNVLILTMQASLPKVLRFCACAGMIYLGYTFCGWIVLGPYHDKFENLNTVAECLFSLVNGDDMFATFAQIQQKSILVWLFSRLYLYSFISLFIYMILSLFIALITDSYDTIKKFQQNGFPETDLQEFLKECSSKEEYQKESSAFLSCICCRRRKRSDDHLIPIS
Briefly: Fluorescent TRPML2 assay (performed as for TRPML1, substituting the TRPML2 subtype). The procedure, abridged: (§1)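 HEK-293 Trex, dox-induced (0.5 ug/mL), mutated for surface expression. Fluo4-AM 1 micromolar load ~60 min, dark; buffer modified Ringer's, 10 mM Ca. Cpds 20 micromolar–6 nanomolar final, half-log, n=3. Read ex 480/em 540; % activity vs controls; EC50 nonlinear fit.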

In experiment [2] the target is T2, TRPML3 (Homo sapiens, UniProt Q8TDD5).
T2 construct: expressed in transfected cells
T2 sequence (Q8TDD5 1-553): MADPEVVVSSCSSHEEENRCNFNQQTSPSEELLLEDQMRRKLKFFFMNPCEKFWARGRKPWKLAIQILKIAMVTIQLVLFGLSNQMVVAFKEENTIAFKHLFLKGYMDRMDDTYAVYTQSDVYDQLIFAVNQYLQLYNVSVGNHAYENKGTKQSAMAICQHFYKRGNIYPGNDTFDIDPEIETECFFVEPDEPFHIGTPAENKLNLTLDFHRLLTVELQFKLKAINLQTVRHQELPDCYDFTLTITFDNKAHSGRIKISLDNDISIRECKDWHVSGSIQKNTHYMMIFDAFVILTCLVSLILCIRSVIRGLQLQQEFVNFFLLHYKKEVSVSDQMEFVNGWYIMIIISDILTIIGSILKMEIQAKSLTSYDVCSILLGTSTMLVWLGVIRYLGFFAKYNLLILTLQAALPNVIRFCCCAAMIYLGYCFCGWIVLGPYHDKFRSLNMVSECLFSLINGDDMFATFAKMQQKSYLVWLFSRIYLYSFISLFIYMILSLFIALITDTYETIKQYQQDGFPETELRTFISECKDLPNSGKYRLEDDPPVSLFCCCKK
Briefly: Fluorescent TRPML3 assay (performed as for TRPML1, substituting the TRPML3 subtype). The essentials:
as §1

Experiment [3] addresses TRPML1 (Homo sapiens, UniProt Q9GZU1). Briefly: Fluorescent TRPML1 assay (Fluo4-AM calcium fluorescence in doxycycline-induced HEK-293 Trex cells). The essentials:
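First, expression of surface-targeted mutant human TRPML1 is induced in HEK-293 Trex cells with 0.5 ug/mL doxycycline the day before. Next, cells take up 1 micromolar Fluo4-AM in Ringer's with 0.1% Pluronic. Finally, they are added to compounds (6 nanomolar–20 micromolar final) in 10 mM calcium Ringer's and fluorescence is read.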

The values that follow come from patent publication US20250136606A1, “MODULATORS OF TRPML, THEIR COMPOSITIONS AND METHODS OF USE” (Caraway Therapeutics, Inc., priority 2021, published 2025).

Read-outs that look alike come from different tables or passages of the source. A value given as a limit tells only on which side of the number the result lay.

Chain of TRPML1 (Q9GZU1 whole entry L15A/L16A/L577A/L578A, form open): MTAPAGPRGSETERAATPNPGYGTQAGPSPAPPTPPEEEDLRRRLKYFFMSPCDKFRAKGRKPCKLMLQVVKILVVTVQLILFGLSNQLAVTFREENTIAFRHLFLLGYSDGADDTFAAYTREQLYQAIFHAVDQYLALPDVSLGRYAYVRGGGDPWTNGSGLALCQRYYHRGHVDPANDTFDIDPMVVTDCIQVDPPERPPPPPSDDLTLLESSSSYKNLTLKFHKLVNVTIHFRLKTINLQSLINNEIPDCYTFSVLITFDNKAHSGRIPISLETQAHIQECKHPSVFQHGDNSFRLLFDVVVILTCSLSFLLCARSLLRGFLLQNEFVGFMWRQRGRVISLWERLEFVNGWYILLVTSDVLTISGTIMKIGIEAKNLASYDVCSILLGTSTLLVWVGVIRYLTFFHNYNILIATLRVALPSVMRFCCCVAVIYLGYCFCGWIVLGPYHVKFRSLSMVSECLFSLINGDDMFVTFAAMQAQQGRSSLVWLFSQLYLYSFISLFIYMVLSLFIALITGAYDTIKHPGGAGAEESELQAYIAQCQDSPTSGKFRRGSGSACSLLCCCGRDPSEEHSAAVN

Take `C[C@H]1CN(C(=O)OC(C)(C)C)CCN1c1ncnc2c1c(C1CC1)cn2C1CCC1` [Compound 398, tert-butyl (S)-4-(7-cyclobutyl-5-cyclopropyl-7H-pyrrolo[2,3-d]pyrimidin-4-yl)-3-methylpiperazine-1-carboxylate]: the results for the EC50 in experiment [1] (fluorescent calcium assay), in experiment [2] (fluorescent calcium assay) and in experiment [3] (fluorescent calcium assay) were 100 to 500 nM, 100 to 500 nM and under 100 nM, respectively.

`C[C@@H]1CN(c2ncnc3c2c(N2CCC2)cn3-c2cccc(Cl)c2)[C@@H](C)CN1C(=O)OC(C)(C)C` [Compound 490, tert-butyl (2R,5S)-4-(5-(azetidin-1-yl)-7-(3-chlorophenyl)-7H-pyrrolo[2,3-d]pyrimidin-4-yl)-2,5-dimethylpiperazine-1-carboxylate]: the EC50 in experiment [1] (fluorescent calcium assay), in experiment [2] (fluorescent calcium assay) and in experiment [3] (fluorescent calcium assay) was under 100 nM throughout.

Take `C[C@H]1CN(C(=O)OC(C)(C)C)CCN1c1ncnc2c1c(N1CCC1)cn2-c1cc(C#N)ccn1` [Compound 407, tert-butyl (S)-4-(5-(azetidin-1-yl)-7-(4-cyanopyridin-2-yl)-7H-pyrrolo[2,3-d]pyrimidin-4-yl)-3-methylpiperazine-1-carboxylate]: the EC50 in experiment [1] (fluorescent calcium assay), in experiment [2] (fluorescent calcium assay) and in experiment [3] (fluorescent calcium assay) was under 100 nM in each case.

Regarding `[2H]C([2H])([2H])[C@@H]1CN(c2ncnc3c2c(C(F)F)cn3-c2cc(C#N)ccn2)[C@@H](C)CN1C(=O)OC(C)(C)C` [Compound 610, tert-butyl (2R,5S)-4-(7-(4-cyanopyridin-2-yl)-5-(difluoromethyl)-7H-pyrrolo[2,3-d]pyrimidin-4-yl)-5-methyl-2-(methyl-d3)piperazine-1-carboxylate], the EC50 in experiment [1] is 500 to 2000 nM; in experiment [2], under 100 nM; in experiment [3], under 100 nM.

On to `C[C@@H]1CN(c2ncnc3c2c(C(F)(F)F)cn3-c2cc(C#N)ccn2)[C@@H](C)CN1C(=O)OC1(C(F)(F)F)CCC1` [Compound 604, 1-(trifluoromethyl)cyclobutyl (2R,5S)-4-(7-(4-cyanopyridin-2-yl)-5-(trifluoromethyl)-7H-pyrrolo[2,3-d]pyrimidin-4-yl)-2,5-dimethylpiperazine-1-carboxylate], for which the EC50 in experiment [1] is 100 to 500 nM; in experiment [2], under 100 nM; in experiment [3], under 100 nM.

Turning to `COc1cncc(-n2cc(-c3ccccc3F)c3c(N4C[C@@H](C)N(C(=O)OC(C)(C)C)C[C@@H]4C)ncnc32)c1` [Compound 135, tert-butyl (2R,5S)-4-(5-(2-fluorophenyl)-7-(5-methoxypyridin-3-yl)-7H-pyrrolo[2,3-d]pyrimidin-4-yl)-2,5-dimethylpiperazine-1-carboxylate], the EC50 in experiment [1] (fluorescent calcium assay) was 100 to 500 nM; in experiment [2] (fluorescent calcium assay), under 100 nM; in experiment [3] (fluorescent calcium assay), under 100 nM.

Regarding `C[C@@H]1CN(c2ncnc3c2c(C(F)(F)F)cn3-c2cc(C#N)ccn2)[C@@H](C)CN1C(=O)OC1(C)CCC1` [Compound 535, 1-methylcyclobutyl (2R,5S)-4-(7-(4-cyanopyridin-2-yl)-5-(trifluoromethyl)-7H-pyrrolo[2,3-d]pyrimidin-4-yl)-2,5-dimethylpiperazine-1-carboxylate], the EC50 in experiment [1], in experiment [2] and in experiment [3] was under 100 nM throughout.

Turning to `CCOC(=O)N1CCN(c2ncnc3c2c(-c2ccccn2)cn3-c2ccc(F)c(Cl)c2)CC1` [Compound 152, ethyl 4-(7-(3-chloro-4-fluorophenyl)-5-(pyridin-2-yl)-7H-pyrrolo[2,3-d]pyrimidin-4-yl)piperazine-1-carboxylate], the values for the EC50 in experiment [1] (fluorescent calcium assay), in experiment [2] (fluorescent calcium assay) and in experiment [3] (fluorescent calcium assay) were over 2000 nM, 500 to 2000 nM and 500 to 2000 nM, respectively.

In the case of `C[C@H]1CN(C(=O)OC(C)(C)C)CCN1c1nccc2c1c(C1CC1)cn2-c1cc(C#N)ccn1` [Compound 446, tert-butyl (S)-4-(1-(4-cyanopyridin-2-yl)-3-cyclopropyl-1H-pyrrolo[3,2-c]pyridin-4-yl)-3-methylpiperazine-1-carboxylate], the EC50 in experiment [1] (fluorescent calcium assay) is 100 to 500 nM; in experiment [2] (fluorescent calcium assay), under 100 nM; in experiment [3] (fluorescent calcium assay) it was under 100 nM.

Consider `C[C@H]1CN(C(=O)OC(C)(C)C)CCN1c1ncnc2c1c(C1CC1)cn2C1CCCOC1` (stereo partly drawn) [Compound 345, tert-butyl (3S)-4-(5-cyclopropyl-7-(tetrahydro-2H-pyran-3-yl)-7H-pyrrolo[2,3-d]pyrimidin-4-yl)-3-methylpiperazine-1-carboxylate], for which the figures for the EC50 in experiment [1] (fluorescent calcium assay), in experiment [2] (fluorescent calcium assay) and in experiment [3] (fluorescent calcium assay) were over 2000 nM, 500 to 2000 nM and 500 to 2000 nM, respectively.

Turning to `C[C@H]1CN(C(=O)OC(C)(C)C)CCN1c1ncnc2c1c(C1CCOCC1)nn2-c1ccccc1` [Compound 261, tert-butyl (S)-3-methyl-4-(1-phenyl-3-(tetrahydro-2H-pyran-4-yl)-1H-pyrazolo[3,4-d]pyrimidin-4-yl)piperazine-1-carboxylate], the EC50 in experiment [1] (fluorescent calcium assay) was over 2000 nM; in experiment [2] (fluorescent calcium assay) it was 500 to 2000 nM; in experiment [3] (fluorescent calcium assay), 500 to 2000 nM.

`C[C@@H]1CN(c2ncnc3c2c(C(C)(C)C)cn3-c2nccc(C#N)n2)[C@@H](C)CN1C(=O)OC(C)(C)C` [Compound 532, tert-butyl (2R,5S)-4-(5-(tert-butyl)-7-(4-cyanopyrimidin-2-yl)-7H-pyrrolo[2,3-d]pyrimidin-4-yl)-2,5-dimethylpiperazine-1-carboxylate]: the EC50 was 500 to 2000 nM in experiment [1], 100 to 500 nM in experiment [2] and under 100 nM in experiment [3].

Consider `CC[C@@H]1CN(c2ncnc3c2c(C2CC2)cn3-c2cc(F)cc(F)c2)CCN1C(=O)OC(C)(C)C` [Compound 256, tert-butyl (R)-4-(5-cyclopropyl-7-(3,5-difluorophenyl)-7H-pyrrolo[2,3-d]pyrimidin-4-yl)-2-ethylpiperazine-1-carboxylate], for which the EC50 is 500 to 2000 nM in experiment [1] (fluorescent calcium assay), under 100 nM in experiment [2] (fluorescent calcium assay) and under 100 nM in experiment [3] (fluorescent calcium assay).

Take `C[C@H]1CN(C(=O)OC(C)(C)C(F)(F)F)CCN1c1ncnc2c1c(C1CC1)cn2-c1cccc(C#N)c1` [Compound 266, 1,1,1-trifluoro-2-methylpropan-2-yl (S)-4-(7-(3-cyanophenyl)-5-cyclopropyl-7H-pyrrolo[2,3-d]pyrimidin-4-yl)-3-methylpiperazine-1-carboxylate]: the EC50 in experiment [1] (fluorescent calcium assay) was 500 to 2000 nM; in experiment [2] (fluorescent calcium assay), under 100 nM; in experiment [3] (fluorescent calcium assay) it was under 100 nM.

As to `Cc1cc(C#N)cc(-n2cc(C(F)(F)F)c3c(N4C[C@@H](C)N(C(=O)OC(C)(C)C)C[C@@H]4C)ncnc32)n1` [Compound 517, tert-butyl (2R,5S)-4-(7-(4-cyano-6-methylpyridin-2-yl)-5-(trifluoromethyl)-7H-pyrrolo[2,3-d]pyrimidin-4-yl)-2,5-dimethylpiperazine-1-carboxylate], the EC50 is 100 to 500 nM in experiment [1], under 100 nM in experiment [2] and under 100 nM in experiment [3].

Consider `Cc1cc(-n2cc(-c3ccccc3F)c3c(N4CCN(C(=O)OC(C)(C)C)C[C@@H]4C)ncnc32)cc(C#N)n1` [Compound 444, tert-butyl (S)-4-(7-(2-cyano-6-methylpyridin-4-yl)-5-(2-fluorophenyl)-7H-pyrrolo[2,3-d]pyrimidin-4-yl)-3-methylpiperazine-1-carboxylate], for which the EC50 is 100 to 500 nM in experiment [1] (fluorescent calcium assay), under 100 nM in experiment [2] (fluorescent calcium assay) and under 100 nM in experiment [3] (fluorescent calcium assay).
